Experimental data reported in patent US12268747B2, “Polypeptides having anti-senescent effects and uses thereof” (OneSkin, Inc., priority 2019, dated 2025).
Peptide text beside a SMILES is read from it.

Assays:
[1] = tested on: Human primary fibroblasts isolated from 3 healthy chronologically aged (elder) donors; assay: 3-week exposure: SA-β-galactosidase senescence and proliferation; assay type: cell-based; settings: 3.12 μM, counted at days 7, 14, 21, 28
Method: Human primary fibroblasts isolated from 3 healthy chronologically aged (elder) donors were used. These cells were cultured in DMEM (Dulbecco's Modified Eagle's Medium) supplemented with 10% v.v. fetal bovine serum (FBS), and 1% v.v. of penicillin/streptomycin solution (1,000 U·mL−1). Cells were kept in a 5% CO2, 37° C. and 95% humidity atmosphere. After expansion, these cells were seeded in T-75 flasks (250,000 cells per flask) and, 6 hours after plating, were incubated for 3 weeks (21 days) with Peptide 14 at 3.12 μM. A negative control comprised untreated cells, which received vehicle only. Day 0 was defined as the day cells started to be treated with Peptide 14. No Peptide 14 treatment was performed between days 21 and 28. Weekly, cellular senescence was assessed according to senescence associated β-galactosidase staining levels. Data was normalized to untreated group and plotted (FIG. 4, panel A). Cellular proliferation was also determined weekly. At days 7, 14, 21, and 28, cells were trypsinized and counted (FIG. 4, panel B). After counting, 250,000 cells were plated in new T-75 flasks. Three independent experiments (biological replicates) including three technical replicates were performed. Data was analyzed using T-test. Statistical significance was determined as p values equal or lower than 0.05.

[2] = tested on: human primary fibroblasts isolated from 3 healthy donors, UVB exposed; assay: UVB-induced senescence in fibroblasts; assay type: cell-based; settings: 5 μM, 48 hours after UVB
Method: Cellular senescence may be caused by several different stimuli. In order to assess whether Peptide 14 was effective against UVB-induced and chemically-induced senescence, human primary fibroblasts isolated from 3 healthy donors were used. These cells were cultured in DMEM (Dulbecco's Modified Eagle's Medium) supplemented with 10% v.v. fetal bovine serum (FBS), and 1% v.v. of penicillin/streptomycin solution (1,000 U·mL−1). Cells were kept in a 5% CO2, 37° C. and 95% humidity atmosphere. After expansion, these cells were seeded in 96-well plates (4,000 cells per well) and, 6 hours after plating, were submitted to either etoposide (20 μM) treatment for 24 hours, or exposed twice to 0.05 J/cm^2 of UVB radiation. […] After incubation, relative cellular senescence (assessed by the activity of senescence associated β-galactosidase staining relative to untreated control) was analyzed and plotted in column graphs. ATRX foci were also assessed following ATRX immunofluorescence staining. Graphs were built using the average ATRX foci detected per nuclei. […] Data was analyzed using with either t-test or ANOVA followed by a Bonferroni post-hoc test. Statistical significance was determined as p-values equal or lower than 0.05 (FIG. 6).

[3] = tested on: Caenorhabditis elegans; assay: C. elegans healthspan and lifespan; assay type: in vivo; settings: 1 μM and 2 μM, no decrease in worm movement at either time point
Method: Senotherapeutic strategies can be linked to healthspan and lifespan extension in vivo. In order to assess whether Peptide 14 promotes extended healthspan and lifespan, Caenorhabditis elegans worms were used. Peptide 14 was added in the worm media (M9 buffer media) at different concentrations of 1 μM or 2 μM. Negative control worms received vehicle only. Two healthspan parameters were assessed i) pharyngeal pumping and ii) worm movement. Lifespan was also determined. For pharyngeal pumping analysis, 15 worms had their pharynx movement (pumping) observed daily and counted for 20 seconds. This experiment was repeated 3 times, by 2 different blind observers, employing different populations of animals at different days. Statistical difference was detected by analyzing each individual time point by One-Way ANOVA and Dunnet's post hoc test. All groups were compared with the H2O group. For worm movement analysis, the basic movement of C. elegans, also called thrashing, was measured daily for 15 worms. […] Statistical difference was detected by analyzing each individual time point by One-Way ANOVA and Dunnet's post hoc, and all groups were compared with the H2O group. […] The average lifespan was measured. Statistical difference was detected by analyzing each individual time point by One-Way ANOVA and Dunnet's post hoc, and all groups were compared with the H2O group (FIG. 18).

[4] = tested on: Primary fibroblasts isolated from 3 healthy chronologically aged patients; assay: SA-B-galactosidase senescence in fibroblasts of aged donors, concentration series; assay type: cell-based, human; settings: 1.56-50 μM (Peptide 16: 1.56-25 μM), 48 hours; in at least one of the tested concentrations
Method: Primary fibroblasts isolated from 3 healthy chronologically aged patients were used. Cells were cultured in DMEM (Dulbecco's Modified Eagle's Medium) supplemented with 10% v.v. fetal bovine serum (FBS), and 1% v.v. of penicillin/streptomycin solution (1,000 U·mL−1). Cells were kept in a 5% CO2, 37° C. and 95% humidity atmosphere. After expansion, these cells were seeded in 96-well plates (4,000 cells per well) and, 6 hours after plating the cells were treated with one of 4 senotherapeutic polypeptides (Peptide 14, Peptide 13, Peptide 15, and Peptide 16) and incubated for 48 hours. Each polypeptide was tested at 6 different concentrations: 50 μM, 25 μM, 12.5 μM, 6.25 μM, 3.12 μM, and 1.56 μM, except for Peptide 16, which was tested at 5 different concentrations: 25 μM, 12.5 μM, 6.25 μM, 3.12 μM, and 1.56 μM. A negative control comprised untreated cells, which received vehicle only. After incubation, relative cellular senescence (assessed by the activity of senescence associated B-galactosidase staining relative to untreated control) was analyzed (FIG. 2, panels A-D), in which the Y axis indicates the relative senescence levels normalized to untreated control. Each column corresponds to a different concentration of a polypeptide. Three independent experiments (biological replicates) including three technical replicates were performed. Data was analyzed using Analysis of Variance (ANOVA) and a Bonferroni post-hoc tests. Statistical significance was determined as p values equal or lower than 0.05.

[5] = tested on: pAkt S473; assay: Akt S473 phosphorylation western blot in human skin equivalents; assay type: cell-based; settings: 1 μM, 5 days
Method: (§1) In order to shed light into the mechanism of action of Peptide 14 and similar Peptide 13, Akt S473 phosphorylation (FIG. 8, panel A), senescence associated β-galactosidase staining (FIG. 8, panel B), as well as mRNA expression (FIG. 8, panel C) were investigated. For Akt S473 phosphorylation analysis using western blotting, human primary fibroblasts and keratinocytes were used. These cells were used to build human skin equivalents, which were kept in a 5% CO2, 37° C. and 95% humidity atmosphere air liquid interface. Then, skin equivalents were treated with 1 μM of either Peptide 14 or Peptide 13 for 5 days, and protein analysis was performed on the skin equivalents. Protein was isolated and quantified. Equal amounts of protein were loaded in polyacrylamide gels and transferred into a nitrocellulose membrane. […] Relative pAkt S473/GAPDH signal was compared between treated and non-treated samples. For senescence associated B-galactosidase staining experiments, fibroblasts were used. […] Total RNA was isolated, samples were reverse transcribed, and mRNA expression of GAPDH, sirtuin 6 (SIRT6), BLM, and exonuclease 1 (EXO1) genes were determined using qPCR. […] CT values were analyzed using the 2^−ΔΔCt method. […] Data was analyzed using a T-test. Statistical significance was determined as p values equal or lower than 0.05 (FIG. 8).

[6] = tested on: fibroblasts, UVB exposed; assay: SA-B-galactosidase staining in UVB-exposed fibroblasts (Example 8); assay type: cell-based, human; settings: 48 hours after UVB 2 x 0.05 J/cm^2
Method: as §1

[7] = tested on: human skin equivalents from elder donors; assay: Human skin equivalents: histology score and morphology (Example 18); assay type: cell-based; settings: 0.01% w/v (or 1 μM), 5 days; vehicle control 21.00
Method: To test the effect of Peptide 13 and Peptide 14 treatment on human skin models and the skin morphology, human primary fibroblasts and keratinocytes isolated from healthy elder donors were used to build human skin equivalents. The skin equivalents were treated with 0.01% w/v (or 1 μM) of Peptide 13 or Peptide 14 for 5 days. The negative controls were treated with formulation only. After the 5-day culture, the skin equivalents were analyzed for epidermal thickness, which was quantified according to total epidermal area. Quality assessment based several parameters was performed by blind analysts. […] A minimal score of 19 was required for batch use. This score was validated internally and shown to decrease with age/senescence of the skin equivalents or cultured cells. Three independent experiments were performed with three technical replicates. Data were analyzed using a t-test. Statistical significance was determined as p-values equal or lower than 0.05. The statistically significant p-values are noted by * for p<0.05; ** for p<0.01; *** for p<0.001; **** for p<0.0001 between the groups.

[8] = tested on: p16, BLIMP1, ZYG11B, IL-8, Ki-67, ZIC1, MMP1, HAS2 mRNA in 3D skin equivalents; assay: 3D skin equivalents: relative mRNA expression of senescence, aging and health markers; assay type: cell-based, human
Method: 3D skin equivalent sections of samples built with cells from elder donors ([…]) were treated with 1 μM Peptide 14 or Peptide 13, or 20 μM Retinoic Acid (RA) and assessed for the effect of the various treatments of various markers of senescence, aging, and health.
Data are presented as 2-ddCt normalized to GAPDH and untreated control. *p<0.05. Peptide 13 and Peptide 14-treated samples generally had similar relative mRNA expression levels for p16, BLIMP1, ZYG11B, IL-8, and Ki-67 in the epidermal layer, and for p16, MMP1, HAS2, IL-8, and Ki-67 in the dermal layer. Peptide 13 and Peptide 14-treated samples generally had lower relative mRNA expression levels than RA-treated samples for p16, BLIMP1, ZYG11B, IL-8, in the epidermal layer and for p16, MMP1, IL-8, and Ki-67 in the dermal layer. Peptide 13 and Peptide 14-treated samples generally had higher relative mRNA expression levels than RA-treated samples for Ki-67 in the epidermal layer and for HAS2 for the dermal layer. Peptide 13 and Peptide 14-treated samples had similar relative mRNA expression levels as RA-treated samples for ZIC1 and Ki-67 for dermal layer.

[9] = 1 μM peptide vs 20 μM Retinoic Acid

Compound	cell proliferation vs untreated control [1]	cell number [2]	toxicity to C. elegans (worm movement) [3]	relative cellular senescence (SA-B-galactosidase staining) vs untreated control [4]	pAkt S473 in dermal samples [5]	pAkt S473 in epidermal samples [5]	SA-B-galactosidase staining in UVB-exposed samples [6]	mean of histology scores (maximum 28) [7]	relative mRNA, Peptide 13 vs Peptide 14: p16, BLIMP1, ZYG11B, IL-8, Ki-67 (epidermal); p16, MMP1, HAS2, IL-8, Ki-67 (dermal) ([8]; 1 μM each)	relative mRNA vs RA-treated samples: Ki-67 (epidermal), HAS2 (dermal) [8, 9]	relative mRNA vs RA-treated samples: ZIC1 and Ki-67 (dermal) [8, 9]	relative mRNA vs RA-treated samples: p16, BLIMP1, ZYG11B, IL-8 (epidermal); p16, MMP1, IL-8, Ki-67 (dermal) [8, 9]
CC[C@H](C)[C@H](NC(=O)CNC(=O)[C@H](CCCCN)NC(=O)[C@H](CC(C)C)NC(=O)[C@H](Cc1c[nH]c2ccccc12)NC(=O)[C@H](Cc1c[nH]cn1)NC(=O)[C@H](CCCCN)NC(=O)[C@H](C)NC(=O)[C@@H](NC(=O)[C@@H](N)CCC(=O)O)[C@@H](C)O)C(=O)O [Peptide 14, ETAKHWLKGI] (H-ETAKHWLKGI-OH; N-terminus and C-terminus assumed)	No significant differences	did not significantly alter	not toxic									
ATAKAWLKGI [Peptide 13]				senotherapeutic effects	decreased	dermal samples only	decreased staining	23.44	similar	higher	similar	lower
